Source: patent US20090099192A1, “Substituted 1H-pyrrole-2,5-diones” (Bayer CropScience AG, priority 2004, published 2009)

Assays:
[1] = system: green peach aphid (Myzus persicae); assay: Myzus test (spray treatment, Brassica pekinensis); format: in vivo; settings: for Kill rate in % after 5 d: 500 g/ha, spray, Brassica pekinensis disks
Protocol: (§1) [table] To produce a suitable preparation of active compound, 1 part by weight of active compound is mixed with the stated amounts of solvents and emulsifier, and the concentrate is diluted with emulsifier-containing water to the desired concentration. Disks of Chinese cabbage (Brassica pekinensis) which are infested by all stages of the green peach aphid (Myzus persicae) are sprayed with an active compound preparation of the desired concentration. After the desired period of time, the effect in % is determined. 100% means that all aphids have been killed; 0% means that none of the aphids have been killed.

[2] = system: larvae of the mustard beetle (Phaedon cochleariae); assay: Phaedon larvae test (cabbage leaves dipped); format: in vivo; settings: for Kill rate in % after 7 d: leaf dip, Brassica oleracea
Protocol: [table] To produce a suitable preparation of active compound, 1 part by weight of active compound is mixed with the stated amount of solvent and the stated amount of emulsifier, and the concentrate is diluted with water to the desired concentration. Cabbage leaves (Brassica oleracea) are treated by being dipped into the active compound preparation of the desired concentration and populated with larvae of the mustard beetle (Phaedon cochleariae) while the leaves are still moist. After the desired period of time, the kill in % is determined. 100% means that all beetle larvae have been killed; 0% means that none of the beetle larvae have been killed.

[3] = system: black bean aphid (Aphis fabae); assay: Aphis fabae test; format: in vivo
Protocol: [table] To produce a suitable preparation of active compound, 1 part by weight of active compound is mixed with the stated amounts of solvent and emulsifier, and the concentrate is diluted with emulsifier-containing water to the desired concentration. Shoots of young broadbeans (Vicia faba) which are heavily infested by the black bean aphid (Aphis fabae) are treated by being dipped into the active compound preparation of the desired concentration. After the desired period of time, the kill in % is determined. 100% means that all aphids have been killed; 0% means that none of the aphids have been killed.

[4] = system: green peach aphid (Myzus persicae); assay: Myzus test - oral; format: in vivo; settings: for Kill rate in % after 6 d: 20 ppm, oral (sucking)
Protocol: as §1, with “solvent,” for “solvents and emulsifier,”, “with” for “with emulsifier-containing”, “Vessels” for “Disks of Chinese cabbage (Brassica pekinensis) which”, “populated with” for “infested by”, “persicae), which” for “persicae)”, “treated by sucking on the” for “sprayed with an”

[5] = system: green peach aphid (Myzus persicae); assay: Myzus test (spray treatment, Brassica oleracea); format: in vivo; settings: for Kill rate in % after 7 d: 500 g/ha, spray, Brassica oleracea
Protocol: (§2) [table] To produce a suitable preparation of active compound, 1 part by weight of active compound is mixed with the stated amounts of solvent and emulsifier, and the concentrate is diluted with emulsifier-containing water to the desired concentration. Cabbage leaves (Brassica oleracea) which are heavily infested by the green peach aphid (Myzus persicae) are treated by spraying with the active compound preparation at the desired concentration. After the desired period of time, the kill in % is determined. 100% means that all animals have been killed; 0% means that none of the animals have been killed.

[6] = system: caterpillars of the army worm (Spodoptera frugiperda); assay: Spodoptera frugiperda test (corn leaf disks sprayed); format: in vivo; settings: for Kill rate in % after 7 d: 500 g/ha, spray, Zea mays leaf disks
Protocol: [table] To produce a suitable preparation of active compound, 1 part by weight of active compound is mixed with the stated amounts of solvents and emulsifier, and the concentrate is diluted with emulsifier-containing water to the desired concentration. Disks of corn leaves (Zea mays) are sprayed with an active compound preparation of the desired concentration and, after drying, populated with caterpillars of the army worm (Spodoptera frugiperda). After the desired period of time, the effect in % is determined. 100% means that all caterpillars have been killed; 0% means that none of the caterpillars have been killed.

[7] = system: common spidermite (Tetranychus urticae); assay: Tetranychus test; format: in vivo; settings: for Kill rate in % after 5 d: 500 ppm, spray, Phaseolus vulgaris disks
Protocol: (§3) To produce a suitable preparation of active compound, 1 part by weight of active compound is mixed with the stated amounts of solvent and emulsifier, and the concentrate is diluted with emulsifier-containing water to the desired concentration.
Disks of beans (Phaseolus vulgaris), which are infested by all stages of the common spidermite (Tetranychus urticae) are sprayed with an active compound preparation of the desired concentration.
After the desired period of time, the effect in % is determined. 100% means that all spidermites have been killed; 0% means that none of the spidermites have been killed.

[8] = logP determination by HPLC on reversed-phase column (C 18), EEC Directive 79/831 Annex V.A8; format: physicochemical; settings: reversed-phase C 18, 43° C., acid range (0.1% aqueous phosphoric acid, acetonitrile), marked a)
How it was run: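 Reversed-phase C18 HPLC at 43° C, per EEC Directive 79/831 Annex V.A8, acid range: 0.1% aqueous phosphoric acid with linear 10–90% acetonitrile gradient. logP derived from retention time by linear interpolation between calibrating unbranched alkan-2-ones (C3–C16) of known logP.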

[9] = system: larvae of the mustard beetle (Phaedon cochleariae); assay: Phaedon test (spray treatment); format: in vivo; settings: for Kill rate in % after 7 d: spray, Brassica pekinensis disks
How it was run: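 Chinese cabbage leaf disks sprayed with compound diluted in emulsifier-containing water, dried, then infested with mustard beetle larvae. After a set period, mortality scored in %: 100% all larvae dead, 0% none dead.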

[10] = system: cotton aphid (Aphis gossypii); assay: Aphis gossypii test; format: in vivo; settings: for Kill rate in % after 7 d: 500 g/ha, spray, Gossypium hirsutum
Protocol: as §2, with “Cotton” for “Cabbage”, “(Gossypium hirsutum)” for “(Brassica oleracea)”, “cotton” for “green peach”, “(Aphis gossypii)” for “(Myzus persicae)”

[11] = system: caterpillars of the diamond back moth (Plutella xylostella, resistant strain); assay: Plutella test; resistant strain; format: in vivo
Protocol: as §3
Cabbage leaves (Brassica oleracea) are treated by being dipped into the active compound preparation of the desired concentration and populated with caterpillars of the diamond back moth (Plutella xylostella, resistant strain) while the leaves are still moist.
After the desired period of time, the kill in % is determined. 100% means that all caterpillars have been killed; 0% means that none of the caterpillars have been killed.

[12] = system: caterpillars of the army worm (Spodoptera frugiperda); assay: Spodoptera frugiperda test (cabbage leaves dipped); format: in vivo
Protocol: (§4) [table] To produce a suitable preparation of active compound, 1 part by weight of active compound is mixed with the stated amount of solvent and the stated amount of emulsifier, and the concentrate is diluted with emulsifier-containing water to the desired concentration. Cabbage leaves (Brassica oleracea) are treated by being dipped into the active compound preparation of the desired concentration and populated with caterpillars of the army worm (Spodoptera frugiperda) while the leaves are still moist. After the desired period of time, the kill in % is determined. 100% means that all caterpillars have been killed; 0% means that none of the caterpillars have been killed.

[13] = system: caterpillars of the army worm (Spodoptera exigua); assay: Spodoptera exigua test; format: in vivo
Protocol: as §4, with “amounts” for “amount”, “and” for “and the stated amount of”, “exigua)” for “frugiperda)”

[14] = system: caterpillars of the diamond back moth (Plutella xylostella); assay: Plutella test; format: in vivo
Protocol: as §4, with “amounts” for “amount”, “and” for “and the stated amount of”, “diamond back moth (Plutella xylostella)” for “army worm (Spodoptera frugiperda)”

SMILES | melting point [°C] | logP [8] | activity in the Myzus test (spray, Brassica pekinensis) [1] | Kill rate in % after 5 d [1] [%] | activity in the Phaedon larvae test [2] | activity in the Myzus test - oral [4] | Kill rate in % after 6 d [4] [%] | activity in the Myzus test (spray, Brassica oleracea) [5] | Kill rate in % after 7 d [5] [%] | activity in the Spodoptera frugiperda test (spray) [6] | Kill rate in % after 7 d [6] [%] | activity in the Tetranychus test [7] | Kill rate in % after 5 d [7] [%] | activity in the Phaedon test (spray treatment) [9] | Kill rate in % after 7 d ([9]; 500 g/ha) [%] | activity in the Aphis gossypii test [10] | Kill rate in % after 7 d [10] [%] | also measured
CCN1C(=O)C(O)=C(c2c(C)cc(C)cc2C)C1=O [Example 1, 1-ethyl-3-hydroxy-4-(2,4,6-trimethylphenyl)-1H-pyrrole-2,5-dione] | 168 | – | – | – | – | – | – | – | – | – | – | – | – | – | – | – | – | –
CCN1C(=O)C(OC(=O)C(C)(C)C)=C(c2c(C)cc(C)cc2C)C1=O [Example 2, 1-ethyl-3-pivaloyloxy-4-(2,4,6-trimethylphenyl)-1H-pyrrole-2,5-dione] | 91 | – | good activity | 90 | – | – | – | – | – | – | – | – | – | – | – | – | – | –
C=CCN1C(=O)C(O)=C(c2c(C)cc(C)cc2C)C1=O [Example 4] | – | – | good activity | 70 | good activity | – | – | – | – | – | – | – | – | – | – | – | – | Kill rate in % after 7 d ([2]; 1000 ppm): 100%; activity in the Aphis fabae test [3]: good activity; Kill rate in % after 6 d ([3]; 1000 ppm, Vicia faba shoots dipped): 99%

The next lines start with results.

melting point [°C] | logP [8] | SMILES | activity in the Myzus test (spray, Brassica pekinensis) [1] | Kill rate in % after 5 d [1] [%] | activity in the Phaedon larvae test [2] | activity in the Myzus test - oral [4] | Kill rate in % after 6 d [4] [%] | activity in the Myzus test (spray, Brassica oleracea) [5] | Kill rate in % after 7 d [5] [%] | activity in the Spodoptera frugiperda test (spray) [6] | Kill rate in % after 7 d [6] [%] | activity in the Tetranychus test [7] | Kill rate in % after 5 d [7] [%] | activity in the Phaedon test (spray treatment) [9] | Kill rate in % after 7 d ([9]; 500 g/ha) [%] | activity in the Aphis gossypii test [10] | Kill rate in % after 7 d [10] [%] | also measured
– | logP = 5.34^a) | CC(C)(C)C(=O)OC1=C(c2ccccc2Br)C(=O)N(C2CCCC(C(F)(F)F)C2)C1=O (stereo not drawn) [Example 185] | good activity | 100 | – | good activity | 100 | good activity | 95 | good activity | 100 | good activity | 80 | good activity | 100 | good activity | 95 | –
– | logP = 5.29^a) | CC(C)(C)C(=O)OC1=C(c2ccccc2Cl)C(=O)N(C2CCCC(C(F)(F)F)C2)C1=O (stereo not drawn) [Example 201] | good activity | 100 | – | good activity | 100 | good activity | 98 | good activity | 100 | good activity | 100 | good activity | 100 | good activity | 99 | –
– | logP = 3.53^a) | O=C1C(O)=C(c2ccccc2Cl)C(=O)N1C1CCCC(C(F)(F)F)C1 (stereo not drawn) [Example 214] | – | – | good activity | – | – | – | – | – | – | – | 90 | good activity | – | – | – | Kill rate in % after 7 d ([2]; 500 ppm): 100%; activity in the Plutella test, resistant strain [11]: good activity; Kill rate in % after 7 d ([11]; 500 ppm, leaf dip, resistant strain): 100%; activity in the Spodoptera frugiperda test (leaf dip) [12]: good activity; Kill rate in % after 7 d ([12]; 500 ppm, leaf dip, Brassica oleracea): 100%; activity in the Spodoptera exigua test [13]: good activity; Kill rate in % after 7 d ([13]; 500 ppm, leaf dip): 100%; activity in the Plutella test [14]: good activity; Kill rate in % after 7 d ([14]; 500 ppm, leaf dip): 100%; Kill rate in % after 7 d ([9]; 100 g/ha): 100%
